Legend:
Format in all cases: functional
HL-60(TB) = assay: Growth inhibition of human HL-60(TB) cells assessed as cell growth at 10^-5 M incubated for 48 hrs by sulforhodamine B assay relative to control; details: HL-60, 48 h, read-out: Activity
K562 = assay: Growth inhibition of human K562 cells assessed as cell growth at 10^-5 M incubated for 48 hrs by sulforhodamine B assay relative to control; details: K562, 48 h, read-out: Activity
EKVX = assay: Growth inhibition of human EKVX cells assessed as cell growth at 10^-5 M incubated for 48 hrs by sulforhodamine B assay relative to control; details: read-out: Activity
HOP-92 = assay: Growth inhibition of human HOP92 cells assessed as cell growth at 10^-5 M incubated for 48 hrs by sulforhodamine B assay relative to control; details: HOP-92, 48 h, read-out: Activity
NCI-H226 = assay: Growth inhibition of human NCI-H226 cells assessed as cell growth at 10^-5 M incubated for 48 hrs by sulforhodamine B assay relative to control; details: NCI-H226, 48 h, read-out: Activity
NCI-H460 = assay: Growth inhibition of human NCI-H460 cells assessed as cell growth at 10^-5 M incubated for 48 hrs by sulforhodamine B assay relative to control; details: NCI-H460, 48 h, read-out: Activity
NCI-H522 = assay: Growth inhibition of human NCI-H522 cells assessed as cell growth at 10^-5 M incubated for 48 hrs by sulforhodamine B assay relative to control; details: NCI-H522, 48 h, read-out: Activity
HCC 2998 = assay: Growth inhibition of human HCC2998 cells assessed as cell growth at 10^-5 M incubated for 48 hrs by sulforhodamine B assay relative to control; details: HCC 2998, 48 h, read-out: Activity
HCT-116 = assay: Growth inhibition of human HCT116 cells assessed as cell growth at 10^-5 M incubated for 48 hrs by sulforhodamine B assay relative to control; details: HCT-116, 48 h, read-out: Activity
HT-29 = assay: Growth inhibition of human HT-29 cells assessed as cell growth at 10^-5 M incubated for 48 hrs by sulforhodamine B assay relative to control; details: HT-29, 48 h, read-out: Activity
SF-295 = assay: Growth inhibition of human SF295 cells assessed as cell growth at 10^-5 M incubated for 48 hrs by sulforhodamine B assay relative to control; details: SF-295, 48 h, read-out: Activity
SF-539 = assay: Growth inhibition of human SF539 cells assessed as cell growth at 10^-5 M incubated for 48 hrs by sulforhodamine B assay relative to control; details: SF-539, 48 h, read-out: Activity
SNB-19 = assay: Growth inhibition of human SNB19 cells assessed as cell growth at 10^-5 M incubated for 48 hrs by sulforhodamine B assay relative to control; details: SNB-19, 48 h, read-out: Activity
U-251 = assay: Growth inhibition of human U251 cells assessed as cell growth at 10^-5 M incubated for 48 hrs by sulforhodamine B assay relative to control; details: U-251, 48 h, read-out: Activity
LOX IMVI = assay: Growth inhibition of human LOXIMVI cells assessed as cell growth at 10^-5 M incubated for 48 hrs by sulforhodamine B assay relative to control; details: read-out: Activity
Malme-3M = assay: Growth inhibition of human MALME-3M cells assessed as cell growth at 10^-5 M incubated for 48 hrs by sulforhodamine B assay relative to control; details: read-out: Activity
M14 = assay: Growth inhibition of human M14 cells assessed as cell growth at 10^-5 M incubated for 48 hrs by sulforhodamine B assay relative to control; details: M14, 48 h, read-out: Activity
SK-MEL-2 = assay: Growth inhibition of human SK-MEL-2 cells assessed as cell growth at 10^-5 M incubated for 48 hrs by sulforhodamine B assay relative to control; details: SK-MEL-2, 48 h, read-out: Activity
UACC-62 = assay: Growth inhibition of human UACC62 cells assessed as cell growth at 10^-5 M incubated for 48 hrs by sulforhodamine B assay relative to control; details: UACC-62, 48 h, read-out: Activity
OVCAR-3 = assay: Growth inhibition of human OVCAR3 cells assessed as cell growth at 10^-5 M incubated for 48 hrs by sulforhodamine B assay relative to control; details: OVCAR-3, 48 h, read-out: Activity
OVCAR-5 = assay: Growth inhibition of human OVCAR5 cells assessed as cell growth at 10^-5 M incubated for 48 hrs by sulforhodamine B assay relative to control; details: OVCAR-5, 48 h, read-out: Activity
NCI/ADR-RES = assay: Growth inhibition of human NCI-ADR-RES cells assessed as cell growth at 10^-5 M incubated for 48 hrs by sulforhodamine B assay relative to control; details: read-out: Activity
SK-OV-3 = assay: Growth inhibition of human SKOV3 cells assessed as cell growth at 10^-5 M incubated for 48 hrs by sulforhodamine B assay relative to control; details: SK-OV-3, 48 h, read-out: Activity
786-0 = assay: Growth inhibition of human 786-0 cells assessed as cell growth at 10^-5 M incubated for 48 hrs by sulforhodamine B assay relative to control; details: 786-0, 48 h, read-out: Activity
A498 = assay: Growth inhibition of human A498 cells assessed as cell growth at 10^-5 M incubated for 48 hrs by sulforhodamine B assay relative to control; details: A498, 48 h, read-out: Activity
ACHN = assay: Growth inhibition of human ACHN cells assessed as cell growth at 10^-5 M incubated for 48 hrs by sulforhodamine B assay relative to control; details: read-out: Activity
TK-10 = assay: Growth inhibition of human TK10 cells assessed as cell growth at 10^-5 M incubated for 48 hrs by sulforhodamine B assay relative to control; details: TK-10, 48 h, read-out: Activity
PC-3 = assay: Growth inhibition of human PC3 cells assessed as cell growth at 10^-5 M incubated for 48 hrs by sulforhodamine B assay relative to control; details: PC-3, 48 h, read-out: Activity
MCF7 = assay: Growth inhibition of human MCF7 cells assessed as cell growth at 10^-5 M incubated for 48 hrs by sulforhodamine B assay relative to control; details: MCF7, 48 h, read-out: Activity
MDA-MB-231 = assay: Growth inhibition of human MDA-MB-231 cells assessed as cell growth at 10^-5 M incubated for 48 hrs by sulforhodamine B assay relative to control; details: MDA-MB-231, 48 h, read-out: Activity
Hs-578T = assay: Growth inhibition of human Hs 578T cells assessed as cell growth at 10^-5 M incubated for 48 hrs by sulforhodamine B assay relative to control; details: read-out: Activity
T47D = assay: Growth inhibition of human T47D cells assessed as cell growth at 10^-5 M incubated for 48 hrs by sulforhodamine B assay relative to control; details: read-out: Activity
MDA-MB-468 = assay: Growth inhibition of human MDA-MB-468 cells assessed as cell growth at 10^-5 M incubated for 48 hrs by sulforhodamine B assay relative to control; details: MDA-MB-468, 48 h, read-out: Activity

Row | Structure (SMILES) | growth at 10 µM (HL-60(TB)) [%] | growth at 10 µM (K562) [%] | growth at 10 µM (EKVX) [%] | growth at 10 µM (HOP-92) [%] | growth at 10 µM (NCI-H226) [%] | growth at 10 µM (NCI-H460) [%] | growth at 10 µM (NCI-H522) [%] | growth at 10 µM (HCC 2998) [%] | growth at 10 µM (HCT-116) [%] | growth at 10 µM (HT-29) [%] | growth at 10 µM (SF-295) [%] | growth at 10 µM (SF-539) [%] | growth at 10 µM (SNB-19) [%] | growth at 10 µM (U-251) [%] | growth at 10 µM (LOX IMVI) [%] | growth at 10 µM (NCI/ADR-RES) [%] | growth at 10 µM (SK-OV-3) [%] | growth at 10 µM (A498) [%] | growth at 10 µM (PC-3) [%] | growth at 10 µM (MCF7) [%] | further results
1 | Cc1ccc(S(=O)(=O)N2CCc3c([nH]c4ccccc34)C2c2ccc(C=O)cc2)cc1 (centres undefined) | 105 | 106 | 87.4 | 102 | 86.4 | 93 | 60.3 | 102 | 88.3 | 87.2 | 91.9 | 90.2 | 91.3 | 98 | 85.5 | 88.9 | 88.5 | 84.6 | 84.2 | 92.4 | growth at 10 µM (Malme-3M): 89.7%; growth at 10 µM (M14): 85.8%; growth at 10 µM (SK-MEL-2): 81.6%; growth at 10 µM (UACC-62): 65%; growth at 10 µM (OVCAR-3): 93.5%; growth at 10 µM (OVCAR-5): 78.7%; growth at 10 µM (786-0): 99.6%; growth at 10 µM (ACHN): 79.1%; growth at 10 µM (TK-10): 98%; growth at 10 µM (MDA-MB-231): 73.4%; growth at 10 µM (Hs-578T): 89.2%; growth at 10 µM (T47D): 89.1%; growth at 10 µM (MDA-MB-468): 102%
2 | c1ccc2c(c1)[nH]c1c(-c3ccc(-c4nccc5c4[nH]c4ccccc45)cc3)nccc12 | 99.1 | 93.8 | 89.5 | 98.7 | 90.7 | 103 | 84.7 | 102 | 88.2 | 88.9 | 105 | 109 | 106 | 107 | 89.4 | 95.9 | 88 | 145 | 84.2 | 88.4 | growth at 10 µM (Malme-3M): 92.5%; growth at 10 µM (M14): 99.3%; growth at 10 µM (SK-MEL-2): 95.6%; growth at 10 µM (UACC-62): 105%; growth at 10 µM (OVCAR-3): 101%; growth at 10 µM (OVCAR-5): 110%; growth at 10 µM (786-0): 94.8%; growth at 10 µM (ACHN): 99.5%; growth at 10 µM (TK-10): 105%; growth at 10 µM (MDA-MB-231): 111%; growth at 10 µM (Hs-578T): 97.7%; growth at 10 µM (T47D): 75.8%; growth at 10 µM (MDA-MB-468): 105%
3 | c1ccc2[nH]c(-c3ccc(C4NCCc5c4[nH]c4ccccc54)cc3)nc2c1 (centres undefined) | 97.9 | 88.2 | 103 | 82.2 | 93.5 | 104 | 83.5 | 107 | 96.1 | 94.2 | 107 | 102 | 100 | 93.4 | 98 | 109 | 95.6 | 104 | 85 | 96.7 | growth at 10 µM (Malme-3M): 90%; growth at 10 µM (M14): 96.6%; growth at 10 µM (SK-MEL-2): 96.8%; growth at 10 µM (UACC-62): 86.3%; growth at 10 µM (OVCAR-3): 107%; growth at 10 µM (OVCAR-5): 94.2%; growth at 10 µM (786-0): 95.9%; growth at 10 µM (ACHN): 102%; growth at 10 µM (TK-10): 94.6%; growth at 10 µM (MDA-MB-231): 92.2%; growth at 10 µM (Hs-578T): 93.9%; growth at 10 µM (T47D): 90.8%; growth at 10 µM (MDA-MB-468): 94.7%
4 | c1ccc2[nH]c(-c3ccc(-c4nccc5c4[nH]c4ccccc45)cc3)nc2c1 | – | – | 13 to 81.2 | – | – | 42.9 | – | 19 to 74 | 1 to 16.3 | – | – | – | 27 to 55.1 | – | – | 10 to 62.6 | 22 to 104 | 58 to 68.7 | 47 to 85.7 | 17 to 30.4 | –

Source: ChEMBL document CHEMBL4004838, “Design and synthesis of novel phenyl -1, 4-beta-carboline-hybrid molecules as potential anticancer agents” (Eur J Med Chem, 2017)
